Laboratory results taken from patent publication US20230173042A1, “METHODS OF TREATMENT WITH ASPARAGINASE” (JAZZ PHARMACEUTICALS IRELAND LTD., priority 2017, published 2023).

Columns and labels:
Format in all cases: cell-based
AML = test: SynergyScreen of Pegcrisantaspase or Oncaspar with standard of care agents; details: agent combined with Pegcrisantaspase (FIG. 13A) or Oncaspar (FIG. 13B)
From the text: (§1) The special volcano plot of FIG. 9 relates compound sensitivity (as measured by ^10logIC50) to the presence of cancer hotspot mutations. […] The hotspot mutations were derived from statistical analyses of the recurrence patterns of mutations and copy number alterations in patients through separate studies. Axes and statistical analyses are identical to the volcano plot of FIG. 8. The cutoff p-level for significance is 0.32. […] Effect20 For determination of the effect of the compound on the activity of other anti-cancer agents in SynergyScreen™ experiments, a low, fixed concentration is used, corresponding to the concentration at which cell growth is inhibited by 20%. This concentration is determined using the dose-response curves of the single compounds. The concentration is the value on the x-as, corresponding to 80% viability of untreated at the y-axis.
(§2) See the tables depicted in FIG. 13A-FIG. 13B. Grey shading indicates synergistic activity. Light grey shading indicates one experiment and dark grey indicates two experiments. […] Example 5: mPEG-r-crisantaspase conjugates (Pegcrisantaspases) was tested in combination with ABT-737 against HL-60 cell line.

DLBCL = test: as above; details: agent combined with Pegcrisantaspase (FIG. 13A) or Oncaspar (FIG. 13B)
From the text: as §1, §2

RL = test: Combination (synergy) cell proliferation assay with pegcrisantaspase; details: anti-cancer agent in combination with pegcrisantaspase; RL (DLBCL)
Protocol: (§3) Plate preparation. The stocks of the mixtures and single agents were diluted in DMSO or 0.9% sodium chloride to generate a 7-points dose-response series. After further 31.6 times dilution in 20 mM sterile Hepes buffer pH 7.4 (reference compounds) or medium (pegcrisantaspase), 5 μl of pegcrisantaspase solution, and 5 μl of reference compound was added to 40 μl pre-plated cells in duplicate in a 384-well assay plate. The final DMSO concentration during incubation was 0.4% in all wells.
(§4) Cell proliferation assay. A cell assay stock was thawed and diluted in appropriate medium and dispensed in a 384-well plate, depending on the cell line used, at a concentration of 800-3200 cells per well in […]: i.e., DB: 800 cells per well; RL: 1000 cells per well; MV-4-11: 1600 cells per well; KG-1, HL-60 and HT 3200 cells per well. For each used cell line the cell density was optimized previously. The margins of the plate were filled with phosphate-buffered saline. Plated cells were incubated in a humidified atmosphere of 5% CO2 at 37° C. After 24 hours, 5 μl of pegcrisantaspase solution, and 5 μl of reference compound was added, and plates were further incubated for another 72 hours. After 72 hours, plates were cooled in 30 minutes to room temperature and 25 μl of ATPlite 1Step™ (PerkinElmer) solution was added to each well, and subsequently shaken for 2 minutes. After 5 minutes of incubation in the dark at room temperature, the luminescence was recorded on an Envision multimode reader (PerkinElmer).
(§5) Controls: t=0 signal. On a parallel plate, 40 μl cells were dispensed in quadruplicate and incubated in a humidified atmosphere of 5% CO2 at 37° C. After 24 hours, plates were cooled to room temperature in 30 minutes. 5 μl DMSO-containing Hepes buffer, 5 μl 0.9% sodium chloride-containing medium and 25 μl ATPlite 1Step™ solution were added and subsequently mixed for 2 minutes. Luminescence was measured after 10 minute incubation (=luminescencet=0) in the dark.
(§6) Cell growth control. The cellular doubling times of all cell lines are calculated from the t=0 hours and t=end growth signals of the untreated cells. If the doubling time is out of specification (0.5-2.0 times deviating from historic average) the assay is invalidated.
(§7) Maximum signals. On each 384-well plate, the maximum luminescence was recorded after incubation for 72 hours without compound in the presence of 0.4% DMSO. All equivalent wells (usually 14) were averaged. This average is defined as: luminescenceuntreated,t=72h. Dose response curves. Accurate single agent IC50s are needed for combination analysis. For each single agent its dose-response signal was fitted by a 4-parameter logistics curve using XL-fit 5 (IDBS software):
(§8) luminescence=bottom+(top-bottom)/(1+10^(logIC50−log[cpd])−hill))
(§9) [cpd] is the compound concentration tested. hill is the Hill-coefficient. Bottom and top are the asymptotic minimum and maximum of the curve. Combination Index (CI) determination. The CI is one of the most widely used quantitative indications of synergy. The CI evaluates the concentrations needed to achieve a fixed-effect. A CI of below 1 indicates synergy.
(§10) CI is defined for a certain percentage cell viability (V), which is the signal related to a non-exposed control: V=100%×luminescencetreated,t=72h/luminescenceuntreated,t=72h. The concentrations of the two compounds cpd1 and cpd2 needed to reach a certain percentage cell viability V in combination are then compared to the concentrations needed as single agents:
(§11) IC50,cpd1 would signify the IC50 of cpd1 alone. The CI is labelled by %-effect, to follow conventions, so CI75 signifies the CI at 25% viability Curve shift analysis. This analysis provides a visual confirmation of synergy^1. The concentrations of the mixtures of compounds 1 and 2 (cpd1 and cpd2), and the single agents, were expressed in terms of IC50 equivalents (in ‘units’ of IC50):
(§12) The dose-response signal was fitted by a 4-parameter logistics curve using XL-fit 5 (IDBS software)

DB = test: as above; details: anti-cancer agent in combination with pegcrisantaspase; DB (DLBCL)
Protocol: as §3, §4, §5, §6, §7, §8, §9, §10, §11, §12

KG-1 = test: as above; details: anti-cancer agent in combination with pegcrisantaspase; KG-1 (AML)
Protocol: as §3, §4, §5, §6, §7, §8, §9, §10, §11, §12

HT = test: as above; details: anti-cancer agent in combination with pegcrisantaspase; HT (DLBCL)
Protocol: as §3, §4, §5, §6, §7, §8, §9, §10, §11, §12

HL-60 cell line = test: as above; details: for conclusion (synergy): anti-cancer agent in combination with pegcrisantaspase, HL-60 (AML)
Protocol: as §3, §4, §5, §6, §7, §8, §9, §10, §11, §12

various cell lines = test: Pegcrisantaspase in combination with other compounds (Example 4, FIG. 2); details: compound in combination with Pegcrisantaspase

Row | Compound | effect in AML when used with Pegcrisantaspase or Oncaspar (AML) | effect in DLBCL when used with Pegcrisantaspase or Oncaspar (DLBCL) | conclusion (synergy) (RL) | conclusion (synergy) (DB) | conclusion (synergy) (KG-1) | conclusion (synergy) (HL-60 cell line) | further results
1 | CN(C)CC[C@H](CSc1ccccc1)Nc1ccc(S(=O)(=O)NC(=O)c2ccc(N3CCN(Cc4ccccc4-c4ccc(Cl)cc4)CC3)cc2)cc1[N+](=O)[O-] [ABT-737] | increased effect | increased effect | synergy (CI < 1.0: synergy) | synergy (CI < 1.0: synergy) | strong synergy (CI < 0.3: strong synergy) | strong synergy (CI < 0.3: strong synergy) | conclusion (synergy) (HT): synergy (CI < 1.0: synergy); IC50 (HL-60 cell line; Homo sapiens, single agents, dose-response curves of FIG. 3, HL-60): 835 nM; Emax (HL-60 cell line; Homo sapiens, single agents, dose-response curves of FIG. 3, HL-60, read-out: maximal effect): 67%; IC50 (HL-60 cell line; Homo sapiens, therapeutic as single agent, HL-60, 72 hours): 1210 nM; potentiation of the effect by Pegcrisantaspase (various cell lines): synergy
2 | O=C(Cc1cccc(OC(F)(F)F)c1)Nc1ccc(CCCCc2nnc(NC(=O)Cc3ccccn3)s2)nn1 [CB-839] |  | increased effect |  |  |  |  | 
3 | CC(C)C[C@H](NC(=O)[C@H](Cc1ccccc1)NC(=O)c1cnccn1)B(O)O [bortezomib] | increased effect | increased effect |  |  |  |  | 
4 | CC(C)C[C@H](NC(=O)[C@H](CCc1ccccc1)NC(=O)CN1CCOCC1)C(=O)N[C@@H](Cc1ccccc1)C(=O)N[C@@H](CC(C)C)C(=O)[C@@]1(C)CO1 [carfilzomib] | increased effect | increased effect | synergy (CI < 1.0: synergy) | synergy (CI < 1.0: synergy) | synergy (CI < 1.0: synergy) | antagonism | conclusion (synergy) (HT): no synergy/antagonism
5 | Nc1ccn([C@@H]2O[C@H](CO)[C@@H](O)[C@@H]2O)c(=O)n1 [cytarabine] | increased effect |  |  |  |  |  | potentiation of the effect by Pegcrisantaspase (various cell lines): synergy
6 | Cn1c(=O)n(-c2ccc(C(C)(C)C#N)cc2)c2c3cc(-c4cnc5ccccc5c4)ccc3ncc21 [dactolisib] | increased effect | increased effect |  |  | strong synergy (CI < 0.3: strong synergy) | synergy (CI < 1.0: synergy) | 
7 | COc1cccc2c1C(=O)c1c(O)c3c(c(O)c1C2=O)C[C@@](O)(C(C)=O)C[C@@H]3O[C@H]1C[C@H](N)[C@H](O)[C@H](C)O1 [daunorubicin] | increased effect |  |  |  |  |  | 
8 | CO[C@H]1C[C@@H]2CC[C@@H](C)[C@@](O)(O2)C(=O)C(=O)N2CCCC[C@H]2C(=O)O[C@H]([C@H](C)C[C@@H]2CC[C@@H](OCCO)[C@H](OC)C2)CC(=O)[C@H](C)/C=C(\C)[C@@H](O)[C@@H](OC)C(=O)[C@H](C)C[C@H](C)/C=C/C=C/C=C/1C [everolimus] |  | increased effect |  |  |  |  | 
9 | C[C@]12C=CC(=O)C=C1CC[C@@H]1[C@@H]2[C@@H](O)C[C@@]2(C)[C@H]1CC[C@]2(O)C(=O)CO [prednisolone] |  | increased effect | synergy (CI < 1.0: synergy) | no synergy (CI = 1.0: no synergy) |  |  | 
10 | CC1(C)CCC(CN2CCN(c3ccc(C(=O)NS(=O)(=O)c4ccc(NCC5CCOCC5)c([N+](=O)[O-])c4)c(Oc4cnc5[nH]ccc5c4)c3)CC2)=C(c2ccc(Cl)cc2)C1 [venetoclax] |  |  | synergy (CI < 1.0: synergy) | synergy (CI < 1.0: synergy) | strong synergy (CI < 0.3: strong synergy) | strong synergy (CI < 0.3: strong synergy) | conclusion (synergy) (HT): no synergy (CI = 1.0: no synergy)
11 | CC[C@]1(O)C[C@H]2CN(CCc3c([nH]c4ccccc34)[C@@](C(=O)OC)(c3cc4c(cc3OC)N(C=O)[C@H]3[C@@](O)(C(=O)OC)[C@H](OC(C)=O)[C@]5(CC)C=CCN6CC[C@]43[C@@H]65)C2)C1 [vincristine] |  | increased effect |  |  |  |  | 
